These results are taken from US20250214967A1, “FAK DEGRADERS, PHARMACEUTICAL COMPOSITIONS, AND THERAPEUTIC APPLICATIONS” (Berrybio (Shanghai) Limited, priority 2022, published 2025).

Each structure is given as a SMILES string.

A word on the Dmax: it is the largest share of the target that was removed.

In the experiment the target is FAK (Homo sapiens (Human), UniProt Q05397). As to the kind of experiment: FAK Degradation Assay (Western blot, FAK/GAPDH). The experiment is classed as cell-based. The following applies: MDA-MB-231 cells, 24 h treatment, Western blot normalized to DMSO; for DC50: read-out: DC50 (half-maximal degradation concentration), FAK Degradation; for Dmax: read-out: Dmax (maximal degradation), FAK Degradation. Here is the method: H2122 (4×10^5), MIA PaCa-2 (6×10s), or MDA-MB-231 cells (6×10^5) per well were seeded into a 6-well plate containing 2 mL of complete culture medium (RPMI-1640 for H2122 and MDA-MB-231, and DMEM/F12 for MIA PaCa-2, supplemented with 10% FBS and 1% penicillin/streptomycin). The cells were cultured overnight at 37° C. in the presence of 5% C02 before treated with a compound in a series of concentrations for 24 h. The cells were then washed with ice-cold Dulbecco's phosphate-buffered saline (DPBS). A radioimmuno-precipitation assay (RIPA) buffer was added to lyse the cells on ice for 20 min. The cells were then scrapped using cell scraper and collected in a 1.5 mL tube, which was centrifuged at 14,000 g and 4° C. for 15 min. The supernatant was collected and the total protein concentration of each sample was determined using a PIERCE™ BCA protein assay kit. The supernatant was diluted to the same protein concentration with the RIPA buffer after the BCA assay. Samples of the same protein amount were mixed with 4× a lithium dodecyl sulfate (LDS) sample buffer and boiled at 95° C. for 5 min. The denatured samples were used for electrophoresis.
Chain of FAK (Q05397 whole entry): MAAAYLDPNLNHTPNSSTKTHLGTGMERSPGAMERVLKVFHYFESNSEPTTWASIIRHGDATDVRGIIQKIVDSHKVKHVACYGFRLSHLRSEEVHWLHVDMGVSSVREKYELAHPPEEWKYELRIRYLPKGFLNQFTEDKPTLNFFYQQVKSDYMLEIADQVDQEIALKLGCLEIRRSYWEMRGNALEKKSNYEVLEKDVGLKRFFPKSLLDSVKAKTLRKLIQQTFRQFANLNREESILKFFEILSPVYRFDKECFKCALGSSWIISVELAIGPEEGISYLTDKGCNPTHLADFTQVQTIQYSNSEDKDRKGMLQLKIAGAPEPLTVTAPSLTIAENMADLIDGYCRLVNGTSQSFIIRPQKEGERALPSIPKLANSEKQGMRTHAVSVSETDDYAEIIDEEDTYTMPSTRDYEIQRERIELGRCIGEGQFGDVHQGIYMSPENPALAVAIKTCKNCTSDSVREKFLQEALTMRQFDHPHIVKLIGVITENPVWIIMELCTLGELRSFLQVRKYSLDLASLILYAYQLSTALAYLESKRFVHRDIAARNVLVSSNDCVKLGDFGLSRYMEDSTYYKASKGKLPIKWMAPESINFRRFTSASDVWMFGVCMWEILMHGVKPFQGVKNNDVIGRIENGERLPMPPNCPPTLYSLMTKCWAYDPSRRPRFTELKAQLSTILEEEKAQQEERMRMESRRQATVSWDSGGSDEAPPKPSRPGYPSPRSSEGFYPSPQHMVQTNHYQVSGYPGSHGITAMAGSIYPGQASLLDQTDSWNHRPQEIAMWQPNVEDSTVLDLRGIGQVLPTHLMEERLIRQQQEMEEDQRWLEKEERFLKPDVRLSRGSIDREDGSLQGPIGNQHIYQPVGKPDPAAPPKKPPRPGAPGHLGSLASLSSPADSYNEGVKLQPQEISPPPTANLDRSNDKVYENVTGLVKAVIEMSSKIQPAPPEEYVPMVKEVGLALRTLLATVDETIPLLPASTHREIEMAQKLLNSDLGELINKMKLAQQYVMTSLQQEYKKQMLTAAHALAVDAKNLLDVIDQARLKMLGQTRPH
For Western blot, the same volume containing ˜50 μg protein for each sample was loaded onto 4-12% Bis-Tris protein gel. The gel was run at 80 V for 0.5 h and at 120 V for 1 h. When the electrophoresis was completed, an IBLOT™ 2 gel transfer device was used to transfer FAK and GAPDH proteins at 20 V for 7 min. All the membranes were blocked in 5% nonfat dry milk in a TBST buffer at RT for 1 h and then incubated with primary antibodies (anti-FAK and anti-GAPDH) in a TBST buffer containing 5% BSA at 4° C. overnight. The membranes were washed with the TBST buffer and then incubated with secondary antibodies (goat anti-rabbit IgG H&L for FAK and goat anti-mouse IgG H&L for GAPDH) at room temperature for 1 h. Blots were visualized using an IMAGEQUANT™ LAS-4000. The chemiluminescent signals from ECL™ Western blotting reagents were captured. The band integrated intensity from each 16-bit blot image was used for quantitation. The FAK/GAPDH signal ratios of each sample were normalized using DMSO as a control and the normalized data for each compound were used to obtain its half-maximal degradation concentration (DC50) and maximal degradation (Dmax).
In general terms: In western blotting, separated proteins are transferred to a membrane and probed.

For `CNC(=O)c1ccccc1Nc1nc(Nc2ccc(CNC3CCN(c4ccc(C5CCC(=O)NC5=O)cc4)CC3)cc2)ncc1C(F)(F)F` (centres unmarked) [Compound B2, 2-((2-((4-(((1-(4-(2,6-Dioxopiperidin-3-yl)phenyl)piperidin-4-yl)amino)methyl)-phenyl)amino)-5-(trifluoromethyl)pyrimidin-4-yl)amino)-N-methylbenzamide], the DC50 turned out to be 0.2 nM and the Dmax amounted to 98%.
The matching figures for `CNC(=O)c1ccccc1Nc1cc(Nc2ccc(CN[C@@H]3CCN(c4ccc5c(c4)C(=O)N(C4CCC(=O)NC4=O)C5=O)C3)cc2)ncc1C(F)(F)F` (stereo partly drawn) [Compound A32, 2-((2-((4-((((3R)-1-(2-(2,6-Dioxopiperidin-3-yl)-1,3-dioxoisoindolin-5-yl)-pyrrolidin-3-yl)amino)methyl)phenyl)amino)-5-(trifluoromethyl)pyridin-4-yl)amino)-N-methylbenzamide]: 0.79 nM and 91%.
`CS(=O)(=O)c1cccc(CNc2nc(Nc3ccc(CNC4CCN(c5ccc6c(c5)C(=O)N(C5CCC(=O)NC5=O)C6=O)CC4)cc3)ncc2C(F)(F)F)c1` (centres unmarked) [Compound A24, 2-(2,6-Dioxopiperidin-3-yl)-5-(4-((4-((4-((3-(methylsulfonyl)benzyl)amino)-5-(trifluoromethyl)pyrimidin-2-yl)amino)benzyl)amino)piperidin-1-yl)isoindoline-1,3-dione]: the DC50 came out at 0.7 nM and the Dmax came out at 87%.
`CNC(=O)c1ccccc1Nc1nc(Nc2ccc(CNC3CCN(c4ccc5c(c4)C(=O)N(C4CCC(=O)NC4=O)C5=O)CC3)cc2)ncc1C(F)(F)F` (centres unmarked) [Compound A25, 2-((2-((4-(((1-(2-(2,6-dioxopiperidin-3-yl)-1,3-dioxoisoindolin-5-yl)piperidin-4-yl)amino)methyl)phenyl)amino)-5-(trifluoromethyl)pyrimidin-4-yl)amino)-N-methylbenzamide]: the DC50 came to 0.13 nM and the greatest degradation seen (Dmax) came out at 97%.
For `O=C1CCC(N2C(=O)c3ccc(N4CCC(NCc5ccc(Nc6ncc(C(F)(F)F)c(Oc7cccc8c7C(=O)CC8)n6)cc5)CC4)cc3C2=O)C(=O)N1` (centres unmarked) [Compound A27, 2-(2,6-dioxopiperidin-3-yl)-5-(4-((4-((4-((3-oxo-2,3-dihydro-1H-inden-4-yl)oxy)-5-(trifluoromethyl)pyrimidin-2-yl)amino)benzyl)amino)piperidin-1-yl)isoindoline-1,3-dione], the DC50 came out at 1.3 nM and the maximal degradation (Dmax) was found to be 94%.
As for `CS(=O)(=O)c1cccc(CNc2nc(Nc3ccc4c(c3)CC(=O)N4CC3CCN(c4ccc5c(c4)C(=O)N(C4CCC(=O)NC4=O)C5=O)CC3)ncc2C(F)(F)F)c1` (centres unmarked) [Compound A23, 2-(2,6-dioxopiperidin-3-yl)-5-(4-((5-((4-((3-(methylsulfonyl)benzyl)amino)-5-(trifluoromethyl)pyrimidin-2-yl)amino)-2-oxoindolin-1-yl)methyl)piperidin-1-yl)isoindoline-1,3-dione], the DC50 was found to be 1.3 nM and the greatest degradation seen (Dmax) came to 96%.
For `CN(c1ccccc1CNc1cc(Nc2ccc(C(=O)NC3CN(c4ccc5c(c4)C(=O)N(C4CCC(=O)NC4=O)C5=O)C3)cc2)ncc1C(F)(F)F)S(C)(=O)=O` (centres unmarked) [Compound A20, N-(1-(2-(2,6-Dioxopiperidin-3-yl)-1,3-dioxoisoindolin-5-yl)azetidin-3-yl)-4-((4-((2-(N-methylmethylsulfonamido)benzyl)amino)-5-(trifluoromethyl)pyridin-2-yl)amino)-benzamide] the same measures were 4.6 nM and 79%.
For `CN(c1nccnc1CNc1nc(Nc2ccc(CNC3CCN(c4ccc5c(c4)C(=O)N(C4CCC(=O)NC4=O)C5=O)CC3)c(F)c2)ncc1C(F)(F)F)S(C)(=O)=O` (centres unmarked) [Compound A30, N-(3-(((2-((4-(((1-(2-(2,6-dioxopiperidin-3-yl)-1,3-dioxoisoindolin-5-yl)piperidin-4-yl)amino)methyl)-3-fluorophenyl)amino)-5-(trifluoromethyl)pyrimidin-4-yl)amino)methyl)-pyrazin-2-yl)-N-methylmethanesulfonamide] the same measures were 1.3 nM and 96%.
`CNC(=O)c1ccccc1Nc1nc(Nc2ccc(CNC3CCN(c4ccc5c(c4)C(=O)N(C4CCC(=O)NC4=O)C5=O)CC3)c(F)c2)ncc1C(F)(F)F` (centres unmarked) [Compound A37, 2-((2-((4-(((1-(2-(2,6-dioxopiperidin-3-yl)-1,3-dioxoisoindolin-5-yl)piperidin-4-yl)-amino)methyl)-3-fluorophenyl)amino)-5-(trifluoromethyl)pyrimidin-4-yl)amino)-N-methyl-benzamide]: the DC50 turned out to be 0.86 nM and the Dmax worked out at 94%.
The matching figures for `CN(c1nccnc1CNc1nc(Nc2ccc(OCCCCCCOc3ccc4c(c3)C(=O)N(C3CCC(=O)NC3=O)C4=O)cc2)ncc1C(F)(F)F)S(C)(=O)=O` (centres unmarked) [Compound A8, N-(3-(((2-((4-((6-((2-(2,6-Dioxopiperidin-3-yl)-1,3-dioxoisoindolin-5-yl)oxy)-hexyl)oxy)phenyl)amino)-5-(trifluoromethyl)pyrimidin-4-yl)amino)methyl)pyrazin-2-yl)-N-methylmethanesulfonamide]: 4.1 nM and 100%.
The matching figures for `CN(c1cccc(CNc2cc(Nc3ccc(CNC4CCN(c5ccc6c(c5)C(=O)N(C5CCC(=O)NC5=O)C6=O)CC4)cc3)ncc2C(F)(F)F)c1)S(C)(=O)=O` (centres unmarked) [Compound A16, N-(3-(((2-((4-(((1-(2-(2,6-Dioxopiperidin-3-yl)-1,3-dioxoisoindolin-5-yl)-piperidin-4-yl)amino)methyl)phenyl)amino)-5-(trifluoromethyl)pyridin-4-yl)amino)methyl)-phenyl)-N-methylmethanesulfonamide]: 2.7 nM and 93%.
For the compound `CN(c1ccccc1CNc1cc(Nc2ccc(CN3CC(Oc4ccc5c(c4)C(=O)N(C4CCC(=O)NC4=O)C5=O)C3)cc2)ncc1C(F)(F)F)S(C)(=O)=O` (centres unmarked) [Compound A18, N-(2-(((2-((4-((3-((2-(2,6-Dioxopiperidin-3-yl)-1,3-dioxoisoindolin-5-yl)oxy)-azetidin-1-yl)methyl)phenyl)amino)-5-(trifluoromethyl)pyridin-4-yl)amino)methyl)phenyl)-N-methylmethanesulfonamide], the DC50 amounted to 21 nM and the Dmax is 84%.
The matching figures for `CN(c1nccnc1CNc1nc(Nc2cccc(C(=O)N3CC(OC4CCN(c5ccc6c(c5)C(=O)N(C5CCC(=O)NC5=O)C6=O)CC4)C3)c2)ncc1C(F)(F)F)S(C)(=O)=O` (centres unmarked) [Compound A13, N-(3-(((2-((3-(3-((1-(2-(2,6-dioxopiperidin-3-yl)-1,3-dioxoisoindolin-5-yl)-piperidin-4-yl)oxy)azetidine-1-carbonyl)phenyl)amino)-5-(trifluoromethyl)pyrimidin-4-yl)-amino)methyl)pyrazin-2-yl)-N-methylmethanesulfonamide]: 1.4 nM and 94%.
The matching figures for `CN(c1nccnc1CNc1nc(Nc2cccc(C(=O)NC3CCN(CC4CCN(c5ccc6c(c5)C(=O)N(C5CCC(=O)NC5=O)C6=O)CC4)CC3)c2)ncc1C(F)(F)F)S(C)(=O)=O` (centres unmarked) [Compound A10, N-(1-((1-(2-(2,6-Dioxopiperidin-3-yl)-1,3-dioxoisoindolin-5-yl)piperidin-4-yl)-methyl)piperidin-4-yl)-3-((4-(((3-(N-methylmethylsulfonamido)pyrazin-2-yl)methyl)amino)-5-(trifluoromethyl)pyrimidin-2-yl)amino)benzamide]: 2.1 nM and 98%.
For `CN1Cc2cccc(Oc3nc(Nc4ccc(CNC5CCN(c6ccc7c(c6)C(=O)N(C6CCC(=O)NC6=O)C7=O)CC5)cc4)ncc3C(F)(F)F)c2C1=O` (centres unmarked) [Compound A28, 2-(2,6-dioxopiperidin-3-yl)-5-(4-((4-((4-((2-methyl-3-oxoisoindolin-4-yl)oxy)-5-(trifluoromethyl)pyrimidin-2-yl)amino)benzyl)amino)piperidin-1-yl)isoindoline-1,3-dione] the same measures were 0.87 nM and 91%.
Regarding `COc1cc(CN[C@@H]2CCN(c3ccc4c(c3)C(=O)N(C3CCC(=O)NC3=O)C4=O)C2)c(F)cc1Nc1ncc(C(F)(F)F)c(Oc2cccc3c2C(=O)N(C)C3)n1` (stereo partly drawn) [Compound A58, 2-(2,6-Dioxopiperidin-3-yl)-5-((R)-3-((2-fluoro-5-methoxy-4-((4-((2-methyl-3-oxoisoindolin-4-yl)oxy)-5-(trifluoromethyl)pyrimidin-2-yl)amino)benzyl)amino)pyrrolidin-1-yl)isoindoline-1,3-dione], the DC50 was 0.9 nM and the greatest degradation seen (Dmax) is 84%.
